Source: patent US7786108B2, “Compounds and method for treating dyslipidemia” (Eli Lilly and Company, priority 2004, dated 2010)

test system: transgenic mice that express both human CETP and human apolipoprotein A-1; test: In vivo assay of plasma lipids: elevation of HDL cholesterol; conditions: Mus musculus; single oral dose 30 mg/kg; HDL cholesterol in serum at 8 hr after administration; relative to a control; read-out: % HDL cholesterol increase
Source text: Additional serum lipids can be analyzed by enzymatic methods.

Row | SMILES | change in vivo at 30 mg/kg
1 | Cc1cc2c(c(C)c1C(F)(F)F)N(CC1CC1)CCC[C@@H]2N(Cc1cc(C(F)(F)F)cc(C(F)(F)F)c1)c1nnn(C)n1 [Example 148, (S)-(3,5-Bis-trifluoromethyl-benzyl)-(1-cyclopropylmethyl-7,9-dimethyl-8-trifluoromethyl-2,3,4,5-tetrahydro-1H-benzo[b]azepin-5-yl)-(2-methyl-2H-tetrazol-5-yl)-amine] | 224%
2 | Cc1c2c(cc3c1N(C[C@H]1CC[C@H](CC(=O)O)CC1)CCC[C@@H]3N(Cc1cc(C(F)(F)F)cc(C(F)(F)F)c1)c1nnn(C)n1)COC2 [Example 165, (S)-(4-{9-[(3,5-Bis-trifluoromethyl-benzyl)-(2-methyl-2H-tetrazol-5-yl)-amino]-4-methyl-1,3,6,7,8,9-hexahydro-2-oxa-5-aza-cyclohepta[f]inden-5-ylmethyl}-cyclohexyl)-acetic acid] | 177%
3 | Cc1cc2c(c(C)c1C(F)(F)F)N(CCC(C)(C)CC(=O)O)CCC[C@@H]2N(Cc1cc(C(F)(F)F)cc(C(F)(F)F)c1)c1nnn(C)n1 [Example 154, (S)-5-{5-[(3,5-Bis-trifluoromethyl-benzyl)-(2-methyl-2H-tetrazol-5-yl)-amino]-7,9-dimethyl-8-trifluoromethyl-2,3,4,5-tetrahydro-benzo[b]azepin-1-yl}-3,3-dimethyl-pentanoic acid] | 99%
4 | Cc1cc2c(cc1C(F)(F)F)N(CC1CCCC1)CCC[C@@H]2N(Cc1cc(C(F)(F)F)cc(C(F)(F)F)c1)c1nnn(CCO)n1 [Example 27, (S)-2-{5-[(3,5-Bis-trifluoromethyl-benzyl)-(1-cyclopentylmethyl-7-methyl-8-trifluoromethyl-2,3,4,5-tetrahydro-1H-benzo[b]azepin-5-yl)-amino]-tetrazol-2-yl}-ethanol] | 128%
5 | Cc1c2c(cc3c1N(CC1CCCC1)CCC[C@@H]3N(Cc1cc(C(F)(F)F)cc(C(F)(F)F)c1)c1nnn(C)n1)COC2 [Example 170, (S)-(3,5-Bis-trifluoromethyl-benzyl)-(5-cyclopentylmethyl-4-methyl-3,5,6,7,8,9-hexahydro-1H-2-oxa-5-aza-cyclohepta[f]inden-9-yl)-(2-methyl-2H-tetrazol-5-yl)-amine] | 95%
6 | Cc1c2c(cc3c1N(Cc1ccc(C(=O)O)cc1)CCC[C@@H]3N(Cc1cc(C(F)(F)F)cc(C(F)(F)F)c1)c1nnn(C)n1)COC2 [Example 166, (S)-4-{9-[(3,5-Bis-trifluoromethyl-benzyl)-(2-methyl-2H-tetrazol-5-yl)-amino]-4-methyl-1,3,6,7,8,9-hexahydro-2-oxa-5-aza-cyclohepta[f]inden-5-ylmethyl}-benzoic acid] | 102%
7 | Cc1cc2c(cc1C(F)(F)F)N(Cc1ccc(C(=O)O)cc1)CCC[C@@H]2N(Cc1cc(C(F)(F)F)cc(C(F)(F)F)c1)c1nnn(C)n1 [Example 89, (S)-4-{5-[(3,5-Bis-trifluoromethyl-benzyl)-(2-methyl-2H-tetrazol-5-yl)-amino]-7-methyl-8-trifluoromethyl-2,3,4,5-tetrahydro-benzo[b]azepin-1-ylmethyl}-benzoic acid] | 186%
8 | Cc1cc2c(c(C)c1C(F)(F)F)N(Cc1ccncc1)CCC[C@@H]2N(Cc1cc(C(F)(F)F)cc(C(F)(F)F)c1)c1nnn(C)n1 [Example 151, (S)-(3,5-Bis-trifluoromethyl-benzyl)-(7,9-dimethyl-1-pyridin-4-ylmethyl-8-trifluoromethyl-2,3,4,5-tetrahydro-1H-benzo[b]azepin-5-yl)-(2-methyl-2H-tetrazol-5-yl)-amine] | 165%
9 | Cc1cc2c(cc1C(F)(F)F)N(C1CCOCC1)CCC[C@@H]2N(Cc1cc(C(F)(F)F)cc(C(F)(F)F)c1)c1nnn(C)n1 [Example 139, (S)-(3,5-Bis-trifluoromethyl-benzyl)-[7-methyl-1-(tetrahydro-pyran-4-yl)-8-trifluoromethyl-2,3,4,5-tetrahydro-1H-benzo[b]azepin-5-yl]-(2-methyl-2H-tetrazol-5-yl)-amine] | 130%
10 | Cc1cc2c(cc1C(F)(F)F)N(Cc1nccs1)CCC[C@@H]2N(Cc1cc(C(F)(F)F)cc(C(F)(F)F)c1)c1nnn(CCN)n1 [Example 129, (S)-[2-(2-Amino-ethyl)-2H-tetrazol-5-yl]-(3,5-bis-trifluoromethyl-benzyl)-(7-methyl-1-thiazol-2-ylmethyl-8-trifluoromethyl-2,3,4,5-tetrahydro-1H-benzo[b]azepin-5-yl)-amine] | 92%
11 | Cn1nnc(N(Cc2cc(C(F)(F)F)cc(C(F)(F)F)c2)[C@H]2CCCN(CC3CCCC3)c3cc4c(cc32)CCCC4)n1 [Example 77, (3,5-Bis-trifluoromethyl-benzyl)-(1-cyclopentylmethyl-2,3,4,5,7,8,9,10-octahydro-1H-naphtho[2,3-b]azepin-5-yl)-(2-methyl-2H-tetrazol-5-yl)-amine] | 229%
12 | Cc1cc2c(cc1C(F)(F)F)N(CC1CCC(CC(=O)O)CC1)CCCC2N(Cc1cc(C(F)(F)F)cc(C(F)(F)F)c1)c1nnn(C)n1 (stereo not shown) [Example 31, (4-{5-[(3,5-Bis-trifluoromethyl-benzyl)-(2-methyl-2H-tetrazol-5-yl)-amino]-7-methyl-8-trifluoromethyl-2,3,4,5-tetrahydro-benzo[b]azepin-1-ylmethyl}-cyclohexyl)-acetic acid] | 114%
13 | Cc1cc2c(cc1C(F)(F)F)N(C(=O)OC(C)C)CCC[C@@H]2N(Cc1cc(C(F)(F)F)cc(C(F)(F)F)c1)c1nnn(C)n1 [Example 16, (S)-5-[(3,5-Bis-trifluoromethyl-benzyl)-(2-methyl-2H-tetrazol-5-yl)-amino]-7-methyl-8-trifluoromethyl-2,3,4,5-tetrahydro-benzo[b]azepine-1-carboxylic acid isopropyl ester] | 82%
14 | Cc1cc2c(c(C)c1C(F)(F)F)N(C[C@H]1CC[C@H](CC(=O)O)CC1)CCC[C@@H]2N(Cc1cc(Cl)cc(C(F)(F)F)c1)c1nnn(C)n1 [Example 201, (S)-(4-{5-[(3-Chloro-5-trifluoromethyl-benzyl)-(2-methyl-2H-tetrazol-5-yl)-amino]-7,9-dimethyl-8-trifluoromethyl-2,3,4,5-tetrahydro-benzo[b]azepin-1-ylmethyl}-cyclohexyl)-acetic acid] | 147%

test system: not given; test: not given; conditions: not given

Row | SMILES | melting point
15 | COC(=O)c1cccc(CN2CCC[C@H](N(Cc3cc(C(F)(F)F)cc(C(F)(F)F)c3)c3nnn(C)n3)c3cc(C)c(C(F)(F)F)cc32)c1 [Example 90, (S)-3-{5-[(3,5-Bis-trifluoromethyl-benzyl)-(2-methyl-2H-tetrazol-5-yl)-amino]-7-methyl-8-trifluoromethyl-2,3,4,5-tetrahydro-benzo[b]azepin-1-ylmethyl}-benzoic acid methyl ester] | 62 to 65 °C (dec.)
16 | COC(=O)c1ccc(CN2CCC[C@H](N(Cc3cc(C(F)(F)F)cc(C(F)(F)F)c3)c3nnn(C)n3)c3cc(C)c(C(F)(F)F)cc32)cc1 [Example 88, (S)-4-{5-[(3,5-Bis-trifluoromethyl-benzyl)-(2-methyl-2H-tetrazol-5-yl)-amino]-7-methyl-8-trifluoromethyl-2,3,4,5-tetrahydro-benzo[b]azepin-1-ylmethyl}-benzoic acid methyl ester] | 71 to 74 °C (dec.)
17 | Cc1cc2c(cc1C(F)(F)F)N(Cc1ccc(C(=O)O)cc1)CCC[C@@H]2N(Cc1cc(C(F)(F)F)cc(C(F)(F)F)c1)c1nnn(C)n1 [Example 89, (S)-4-{5-[(3,5-Bis-trifluoromethyl-benzyl)-(2-methyl-2H-tetrazol-5-yl)-amino]-7-methyl-8-trifluoromethyl-2,3,4,5-tetrahydro-benzo[b]azepin-1-ylmethyl}-benzoic acid] | 95 to 98 °C
18 | Cc1cc2c(cc1C(F)(F)F)N(c1ccc(C(=O)O)cc1)CCC[C@@H]2N(Cc1cc(C(F)(F)F)cc(C(F)(F)F)c1)c1nnn(C)n1 [Example 92, (S)-4-{5-[(3,5-Bis-trifluoromethyl-benzyl)-(2-methyl-2H-tetrazol-5-yl)-amino]-7-methyl-8-trifluoromethyl-2,3,4,5-tetrahydro-benzo[b]azepin-1-yl}-benzoic acid] | 101 to 105 °C
19 | Cc1cc2c(cc1C(F)(F)F)N(Cc1cccc(C(=O)O)c1)CCC[C@@H]2N(Cc1cc(C(F)(F)F)cc(C(F)(F)F)c1)c1nnn(C)n1 [Example 91, (S)-3-{5-[(3,5-Bis-trifluoromethyl-benzyl)-(2-methyl-2H-tetrazol-5-yl)-amino]-7-methyl-8-trifluoromethyl-2,3,4,5-tetrahydro-benzo[b]azepin-1-ylmethyl}-benzoic acid] | 83 to 86 °C
